Data taken from article PMC8952208, “Synthesis, Antiplasmodial, and Antileukemia Activity of Dihydroartemisinin–HDAC Inhibitor Hybrids as Multitarget Drugs” (Pharmaceuticals, 2022).

Tests used:
[1] = tested on: acetylation of histone H3 (marker of HDAC1 inhibition); assay: Immunoblotting, acetyl-histone H3 in K562 cells; type: cell-based, human; details: 0.4 µM, 24 h
Method: (§1) K562 cells were treated with the indicated concentration of the compounds or vehicle control (DMSO) for 24 h. The recovered cell pellets were lysed with RIPA buffer (50 mM Tris-HCl pH 8.0, 1% Triton X-100, 0.5% sodium deoxycholate, 0.1% SDS, 150 mM sodium chloride, and 2 mM EDTA), supplemented with protease and phosphatase inhibitors (Thermofischer Scientific, Waltham, MA, USA). An equal amount of total protein (20 µg) was resolved by SDS-PAGE and followed by transfer on nitrocellulose membrane (Sigma-Aldrich). PageRuler prestained protein ladder, 10 kDa to 180 kDa (Thermofisher Scientific, Waltham, MA, USA) was used as a protein molecular weight marker.

[2] = tested on: acetylation of α-tubulin (marker of HDAC6 inhibition); assay: Immunoblotting, acetyl-α-tubulin in K562 cells; type: cell-based, human; details: 0.4 µM, 24 h
Method: as §1

## O=C(CCCCCCC(=O)Nc1ccccc1)NO [Vorinostat, vorinostat]
[1]
  acetylation of histone H3 (immunoblot): caused hyperacetylation of α-tubulin and histone H3
[2]
  acetylation of α-tubulin (immunoblot): caused hyperacetylation of α-tubulin and histone H3
